In a melting point compilation (Tetko et al.; mined from patent text by program, amines drawn as free bases though some values may be those of a salt):

SMILES	melting point [°C]
COc1ccc(C(C)(C)C)cc1C(N)=NO	132 to 133
CC(C)(C)OC(=O)NCCNC(=O)c1csc(Cl)n1	127 to 129
CCCOC1(C(F)(F)F)CN(C2CC2)C(=O)Nc2ccc(Cl)cc21 (configuration not stated)	153 to 154
Cc1ccc(NC(=O)c2ccccc2CN2C(=O)C3(COc4cc5c(cc43)CCO5)c3ccccc32)c(C)c1 (configuration not stated)	207 to 208
NC(=O)c1cn(-c2ccc(Cl)c(Cl)c2)cn1	244 to 245
O=C(Nc1ccccc1)Nc1ccc2ccc(Cl)nc2n1	276
CCN(C(=O)n1occc1=O)c1ccc(Cl)cc1	149
COc1cc(NCC(O)CO)c([N+](=O)[O-])cc1O (configuration not stated)	180
CC(C)(C)c1ccc(C2(N=C=O)CCC3(CC2)OCCO3)cc1	103 to 106
CC(C)C(Oc1ccccc1)C(=O)OC1CC(O)C=C2C=CC(C)C(CCC3CC(O)CC(=O)O3)C21 (mixture of isomers)	143 to 145
COC(=O)C1=C(C)Nc2ccccc2N(C(C)=O)C1c1cccc([N+](=O)[O-])c1 (configuration not stated)	231 to 232
CC(C)(C)c1ccc(OP(Oc2ccc(C(C)(C)C)cc2C(C)(C)C)c2cccc3ccccc23)c(C(C)(C)C)c1	125 to 127
Cc1[nH]c(C(=O)NCc2ccc3c(c2)OCO3)c(C)c1-c1nc2ccc(C(=O)c3ccccc3)cc2[nH]1	165 to 167
COC(=O)C1=Cc2ccccc2OC1	56 to 57
CCc1c(Sc2cc(C)cc(C)c2)[nH]c(=O)[nH]c1=O	224 to 225
CN1CCN(c2ncnc3c([N+](=O)[O-])cccc23)C1=O	207 to 210
COCC(=O)Nc1cccc(NC(=O)COC)c1	110 to 111
O=Cc1c2ccccc2c(C=O)c2cc3ccccc3cc12	215 to 217
CN1CCN(C(=O)OC2c3ccccc3C(=O)N2c2ccc3ccc(C#N)nc3n2)CC1 (configuration not stated)	266 to 268
CC(=O)NCCc1ccc(CC(=O)O)cc1	117 to 118

SMILES	melting point [°C]
Cc1ncc(CNC(=O)c2nc3n(c(=O)c2O)CCOC3(C)C)s1	245
CC(=O)Nc1c(C#N)oc2ccccc12	164 to 167
C1=C(c2ccccc2)SCCS1	54 to 55
CC(C)(C)[Si](Oc1ccc(Br)cc1)(c1ccccc1)c1ccccc1	56
Cc1c(C2(N(C)C)CCC(c3cccc(F)c3)(N(C)C)CC2)[nH]c2ccccc12 (configuration not stated)	126 to 132
CCCCOc1c(CNC(=O)OC(C)(C)C)n(CC(C)C)c(=O)c2ccc(C(=O)O)cc12	185 to 186
COc1ccc2c(Cl)nccc2c1	72 to 74
N#Cc1ccc(C=C2CCCC2)s1	98 to 100
Nc1ncc(-c2ccc([N+](=O)[O-])c(Cl)c2Cl)c(N)n1	237 to 239
CCC(=O)N[C@@H](C)C(=O)N[C@@H](C)C(=O)NC1CCCCC1	299 to 300
O=S1(=O)NN=Cc2ccsc21	125 to 127
CCOC(=O)c1cnn(-c2cc(Cl)cc(Cl)c2)c1SC	70 to 72
Fc1cccnc1C#CCCc1nc2ccccc2o1	86 to 88
CC(C)C1(C)N=C(c2nc3c(cc2C(=O)O)CCO3)NC1=O (configuration not stated)	189 to 192
COC(F)(F)C(F)(F)C1(C(F)(F)C(F)(F)OC)OCCO1	30 to 40
CCOC1=NS(=O)(=O)c2ccc([N+](=O)[O-])cc21	151 to 154
Cc1cc2c(cnn2-c2c(Cl)cc(C(F)(F)F)cc2Cl)nc1C	135 to 136
CN1C=CCC(C(=O)NCCc2c[nH]c3ccccc23)=C1	40 to 70
CNS(=O)(=O)c1ccc([N+](=O)[O-])cc1[N+](=O)[O-]	155
Cc1ccc(-c2n[nH]cc2C=O)s1	97 to 99

SMILES	melting point [°C]
NN(CCCCO)c1nc2ccccc2o1	87 to 90
CC(=O)C1(O)CCC2C3C=C(C)C4=CC(=O)CCC4(CO)C3CCC21C (configuration not stated)	184 to 186
O=C(O)C(=O)Nc1ccc2[nH]c(=O)oc2c1	254
COc1ccc(-c2cc(-c3ccc(-c4c(Cc5ccccc5)sc5ccccc45)c(Br)c3)ccc2OCC(=O)O)cc1OC	103 to 105
CC(C)(C)OC(=O)NC(Cc1ccccc1)C(O)CNCC(O)C(Cc1ccc(OCCN2CCOCC2=O)cc1)NC(=O)OC(C)(C)C (configuration not stated)	108 to 111
CCCc1c(O)ccc2oc(Cc3ccc(OC)cc3)c(C)c12	91 to 93
O=C(O)C=Cc1nn(-c2ccccc2)c2c1CCC2	223
CC(=O)SCC(C(=O)NC(Cc1ccc(O)cc1)C(=O)O)C(F)(F)F (configuration not stated)	170 to 173
OCCc1ccc2c(c1)sc1ccc(Cl)cc12	98 to 100
O=C1NC(=O)C2(CCOc3c([N+](=O)[O-])cc(F)cc32)S1 (configuration not stated)	192 to 194
CC(=O)c1cccc(Nc2cc(C)nc(N)n2)c1	194 to 196
CCCc1c(OCCCCCC(=O)c2cc(OC)c(OC)cc2F)ccc(C(=O)OC)c1O	127 to 129
CS(=O)(=O)Oc1ccc(C=O)cc1	61 to 63
CCc1cc2c(c3ccc(O)cc13)OCc1cc(O)ccc1-2	184 to 192
CC1(C)C(C=C(C#N)c2ccccc2)C1C(=O)O (configuration not stated)	186 to 188
C=CCNC1=NS(=O)(=O)c2sc(Cl)cc2N1	217 to 221
C=C=CC1(NC(=O)c2ccccc2)CCCNC1=O (configuration not stated)	203 to 204
Cc1c(CO)c(CO)c2n1Cc1ccccc1C2	99 to 101
OCc1ccc(C2=NOC(c3cc(Cl)cc(Cl)c3)(C(F)(F)F)C2)cc1 (configuration not stated)	108 to 110

Second part, the molecule after the results:

melting point [°C]	SMILES
336 to 338	O=c1[nH]c2ncc(-c3ccc(-c4nc[nH]n4)cc3)nc2n1CC1CCCCC1
274 to 276	COc1ccc(OC)c2[nH]c(-c3ccc(Cl)cc3)nc12
152 to 153	O=C1C(=Cc2ccc(Br)cc2)CCc2cc(OCCn3ccnc3)ccc21
191 to 193	CC(=O)c1cc2c(s1)CCC1CC(=O)N(c3ccc(C)cc3)N=C21 (configuration not stated)
201 to 203	CC(=O)N1CCN(CCc2ccc(-c3cccc(N)n3)cc2)CC1
217 to 218	CN(c1cccc2cc(-c3ncc(CCC(=O)NS(C)(=O)=O)s3)[nH]c12)S(=O)(=O)c1cccs1
193 to 195	O=c1ccc(-c2c(-c3ccccc3)nn3ccccc23)nn1[C@H]1CC[C@@H](C(=O)O)CC1
128	O=C(c1ccc(Br)s1)N(Cc1cccc(O)c1)C1CC1
117 to 118	O=Cc1c(Cl)nc(-c2ccccc2)n1Cc1ccccc1
244	O=C1CC(c2cccc(-n3ccnc3)c2)=Nc2cc(N3C[C@@H](O)[C@@H](O)C3)c(-c3ccc(F)cc3)cc2N1
143 to 145	CC(=O)Nc1ccn(C2CCC(CO)O2)c(=O)n1 (configuration not stated)
60 to 90	CCCCNS(=O)(=O)CC(O)C(O)C(CC1CCCCC1)NC(=O)C(CC)Cc1c[nH]cn1 (configuration not stated)
> 280	O=c1[nH]c(=O)c2cc(N3CCCCC3)ccc2[nH]1
278 to 280	O=c1[nH]c2ccccc2c2nc(-c3ccccc3)cn12
139 to 142	CS(=O)(=O)c1ccc(-c2cccn2-c2ccc(Cl)c(Cl)c2)cc1
> 250	O=c1ccc(-c2ccnnc2)c[nH]1
96	O=C1C=C2CCCCC2N1c1ccc(OCCN2CCOCC2)cc1 (configuration not stated)
134 to 136	Cc1nc2cc(S(=O)(=O)n3c(COC(C)(C)C(=O)O)cc4cc(Cl)ccc43)ccc2s1
73 to 75	CCc1c(-c2ccc(OC)cc2)c2cc(C(C)=O)c3cccc1n32
287 to 289	O=C(Nc1cn2cc(Cl)ccc2n1)c1ccc(-n2cccn2)cc1
312 to 314	N#Cc1cccc2c1CN(C1CCC(=O)NC1=O)C2=O (configuration not stated)
237 to 239	Cc1nc2c(N)nc3ccccc3c2n1OCCOc1ccccc1

melting point [°C]	SMILES
281	NS(=O)(=O)c1ccc(-c2cn(-c3nc(-c4ccc(C(F)(F)F)cc4)cc(C(F)(F)F)n3)cn2)s1
135 to 136	COc1ccc2c3c(c(=O)oc2c1)CN(CCc1ccccc1)CC3
206 to 207	CCOCc1nc2c(N)nc3cc(OCc4ccccc4OC)ccc3c2n1CC(C)C
89 to 90	CC(C)c1nn(-c2ccc(C(F)(F)F)cc2)cc1CCCOc1ccccc1CC(=O)O
106 to 107	COc1cccc(N2CCN(c3c(C)c(C)c4c(c3C)C(N3CCCC3)C(C)(C)O4)CC2)c1 (configuration not stated)
139 to 158	CCN([C@H]1CC[C@H](c2ccc3[nH]c(=O)oc3c2)CC1)[C@H](C)CCc1ccccc1
167 to 168	CCn1nnc2cc3c(N4CCN(C(=O)Nc5ccc(Oc6ccccc6)cc5)CC4)ncnc3cc21
153 to 154	COc1cc(C2CCN(C(=O)OC(C)(C)C)CC2)cnc1COc1ccc(S(C)(=O)=O)cc1
178 to 180	Nc1c(F)c(N2CCC(C(N)c3ccccn3)C2)c(F)c2c1c(=O)c(C(=O)O)cn2C1CC1F (configuration not stated)
260	O=C1N=NC(=O)c2c1[nH]c1cc(Br)ccc21
155 to 157	COC(=O)CC1c2cc(OC)ccc2N(c2nc3ccccc3nc2Cl)C1C (configuration not stated)
243 to 247	COC(=O)c1cnn(C)c1C(=O)Nc1ccn2nc(-c3ccccc3)nc2c1
175 to 177	O=C1NCc2cccnc2N1c1cccc(I)c1
265 to 268	Nc1c(-c2cc(Cl)ccc2O)c2ccccc2[nH]c1=O
153 to 155	Cc1cc(CNC(=O)c2ccnc(N3CCN(Cc4ccc(F)cc4)C3=O)c2)no1
152 to 154	COC(=O)c1cccc([N+](=O)[O-])c1Nc1cccc2[nH]ncc12
184 to 185	O=C(CC12CC3CC(CC(C3)C1)C2)Nc1ccc2[nH]ccc2c1
148	Nc1ccc(NC(=O)OCc2ccccc2)c(O)c1
178 to 179	Nc1nc(OCc2ccccc2)nc2c1ncn2C1OC(CO)C(O)C1O (configuration not stated)
267 to 268	CC(C)NC(=O)Nc1nc(Cc2c(Cl)cccc2Cl)nc(Nc2ccc(C#N)cc2)n1
227 to 229	Cc1c(-c2ccc(O)c(F)c2)sc(C=O)c1-c1ccc(O)cc1
